Series [1] deals with aurora kinase. The following applies: aurora kinase isoform selectivity, Choudary et al. 2015; cited from earlier work.
In series [2] the test system is Jeko-1 mantle cell lymphoma, SU-DHL-4 B cell lymphoma, and Jurkat T cell lymphoma cells. Description: Annexin V / propidium iodide flow cytometry apoptosis assay. In kind it is cell-based. Conditions: 72 hours; 3 μM Compound B, 0.01 or 0.03 μM alisertib, alone or combined; single-agent effect in some cell lines only. The procedure:
To test for induction of apoptosis, Jeko-1 mantle cell lymphoma, SU-DHL-4 B cell lymphoma, and Jurkat T cell lymphoma cells were treated for 72 hours with either: DMSO, 3 μM of Compound B, 0.01 μM of alisertib, 0.03 μM of alisertib, or a combination of both Compound B and alisertib for 72 hrs. Cells were then harvested and stained with Annexin V, which recognizes an epitope on cells in the early stages of apoptosis. Cells were also stained with propidium iodide, which is excluded from cells with intact membranes, thus marking only dead cells. Flow cytometry analysis was then performed to measure the number of healthy and apoptotic cells under each treatment condition.
(A flow cytometer gives signals particle by particle.)

The subject of series [3] is Jurkat T cell lymphoma cells. The description is as above. In kind it is cell-based. The following applies: 72 hours, 3 μM Compound A or B, 0.01 μM alisertib, alone or combined. As for the experimental part:
To determine the extent that the combination therapies of Compound A/alisertib and Compound B/alisertib promote induction of apoptosis, Jurkat T cell lymphoma cells were treated with: DMSO, 3 μM of Compound B, 3 μM of Compound A, 0.01 μM of alisertib, a combination of Compound B/alisertib, or a combination of Compound A/alisertib, for 72 hours. Cells were then harvested and stained with Annexin V and propidium iodide as above. Flow cytometry analysis was then used to measure the number of healthy and apoptotic cells under each treatment condition.

Series [4] has as its system survivin, Aurora A, Aurora B, BubR1, CDC20 and MAD2L1 gene transcripts in H929 multiple myeloma cells. The experiment in a line: Microarray gene expression profiling of H929 cells. In kind it is cell-based. Conditions: H929 cells, 2, 3, or 4 μM, 24 hours or 48 hours, Affymetrix microarray. As for the experimental part: Microarray gene expression profiling was performed in H929 multiple myeloma (MM) cells to determine whether key mitotic regulators are down regulated by […]. H929 multiple myeloma cells were treated for 24 hours or 48 hours with 2, 3, or 4 μM of Compound A. Total RNA was extracted from the cells and subjected to gene expression profiling using an Affymetrix microarray system (Santa Clara, Calif.).

Series [5] has as its system survivin, Aurora A, Aurora B, BubR1, CDC20 and MAD2L1 gene transcripts in H929 MM, U266 MM and Jeko-1 MCL cell lines. Description: qPCR analysis of mitotic regulator downregulation across MM and MCL cell lines. In kind it is cell-based. Conditions: U266 MM and Jeko-1 MCL cells. As for the experimental part:
Independent qPCR validation of mitotic regulator downregulation by Compound A across MM and MCL cell lines was performed using H929 MM, U266 MM and Jeko-1 MCL cell lines. The cells were treated with Compound A. Total RNA was extracted and gene expression was measured by quantitative polymerase chain reaction (PCR) analysis.

In the case of `O=C(Nc1c[nH]nc1-c1nc2cc(CN3CCOCC3)ccc2[nH]1)NC1CC1` [AT-9283], the Selectivity entry in series [1] is “Aurora A and Aurora B”.

`COc1cc(Nc2ncc3c(n2)-c2ccc(Cl)cc2C(c2c(F)cccc2OC)=NC3)ccc1C(=O)O` [Alisertib]: the “percentage of cells undergoing apoptosis” value in series [2] is “some induction of apoptosis”; in series [3], “minimal induction of apoptosis”. Also, the Selectivity entry in series [1] is listed as “Aurora A”. As for `CCN(CCCOc1ccc2c(Nc3cc(CC(=O)Nc4cccc(F)c4)[nH]n3)ncnc2c1)CCOP(=O)(O)O` [Barasertib], the Selectivity result in series [1] is reported as “Aurora B”.

On to `O=C(CCCCCCNC(=O)c1cnc(N(c2ccccc2)c2ccccc2)nc1)NO` [Compound A, 2-(diphenylamino)-N-(7-(hydroxyamino)-7-oxoheptyl)pyrimidine-5-carboxamide], for which the “percentage of cells undergoing apoptosis” value in series [3] is given as “minimal induction of apoptosis”. In addition, the “expression of key mitotic regulatory genes (relative fold induction vs DMSO)” value in series [4] is “reduced the expression”. The “expression of key mitotic regulatory genes (relative to RPLP1, vs DMSO)” value in series [5] is reported as “reduced the expression”. On to `O=C(CCCCCCNC(=O)c1cnc(N(c2ccccc2)c2ccccc2Cl)nc1)NO` [Compound B, 2-((2-chlorophenyl)(phenyl)amino)-N-(7-(hydroxyamino)-7-oxoheptyl)pyrimidine-5-carboxamide], for which the “percentage of cells undergoing apoptosis” value in series [2] is recorded as “some induction of apoptosis”; in series [3], “minimal induction of apoptosis”. As for `CO[C@@H](C(=O)N1Cc2[nH]nc(NC(=O)c3ccc(N4CCN(C)CC4)cc3)c2C1)c1ccccc1` [Danusertib], in series [1], the Selectivity entry is recorded as “Pan”. As to `Cc1cc(Nc2cc(N3CCN(C)CC3)nc(/C=C/c3ccccc3)n2)n[nH]1` [ENMD- 2076], the Selectivity result in series [1] was “Aurora A”. With `O=C(O)[C@]1(Cc2cccc(Nc3nccs3)n2)CC[C@@H](Oc2cccc(Cl)c2F)CC1` [MK-5108], the Selectivity result in series [1] is given as “Aurora A”. As for `Cc1cc(Nc2ncc(F)c(N[C@H]3[C@@H](C(N)=O)[C@@H]4C=C[C@H]3C4)n2)ccc1N1CCN(C)CC1` [MSC 1992371A], the Selectivity result in series [1] is “Pan”. With `Cc1cc(Nc2cc(N3CCN(C)CC3)nc(Sc3ccc(NC(=O)C4CC4)cc3)n2)[nH]n1` [Tozasertib], the Selectivity result in series [1] is listed as “Pan”.

These data come from patent US11357776B2, “Pharmaceutical combinations comprising a histone deacetylase inhibitor and an aurora kinase inhibitor and methods of use thereof” (ACETYLON PHARMACEUTICALS, INC., priority 2016, dated 2022).
